The record followed here is ChEMBL document CHEMBL4350982, “Multi-target design strategies for the improved treatment of Alzheimer's disease” (Eur J Med Chem, 2019).

The target in data set [1] is T1, Acetylcholinesterase (Homo sapiens, UniProt P22303). As to the kind of experiment: Inhibition of AChE (unknown origin).
Data set [2] addresses T2, Beta-secretase 1 (Homo sapiens, UniProt P56817). As to the kind of experiment: Inhibition of BACE-1 (unknown origin).
Data set [3] addresses Amyloid-beta precursor protein (Homo sapiens) (UniProt P05067). As to the kind of experiment: Inhibition of beta amyloid (unknown origin) self-induced aggregation at 10 uM relative to control.
Data set [4] has as its target T2, Beta-secretase 1. As to the kind of experiment: Inhibition of BACE-1 (unknown origin) after 60 mins by FRET assay.
The target in data set [5] is T1, Acetylcholinesterase. Nature of the data set: Inhibition of recombinant human AChE using acetylthiocholine as substrate by UV-visible absorption method.
Data set [6] in a line: Oral bioavailability in Alzheimer's disease patient at 2 mg/ml. Conditions: human, in vivo. Format: ADME, organism-based.
The nature of data set [7]: Half life in Alzheimer's disease patient at 2 mg/ml, po. Format: ADME. Conditions: human, in vivo.
Data set [8] is described as follows: Drug excretion in Alzheimer's disease patient urine at 2 mg/ml, po. Conditions: human, read-out: Drug excretion. Format: ADME, tissue-based.
Data set [9] deals with T3, Acetylcholinesterase (Rattus norvegicus, UniProt P37136).
T3 sequence (P37136 whole entry): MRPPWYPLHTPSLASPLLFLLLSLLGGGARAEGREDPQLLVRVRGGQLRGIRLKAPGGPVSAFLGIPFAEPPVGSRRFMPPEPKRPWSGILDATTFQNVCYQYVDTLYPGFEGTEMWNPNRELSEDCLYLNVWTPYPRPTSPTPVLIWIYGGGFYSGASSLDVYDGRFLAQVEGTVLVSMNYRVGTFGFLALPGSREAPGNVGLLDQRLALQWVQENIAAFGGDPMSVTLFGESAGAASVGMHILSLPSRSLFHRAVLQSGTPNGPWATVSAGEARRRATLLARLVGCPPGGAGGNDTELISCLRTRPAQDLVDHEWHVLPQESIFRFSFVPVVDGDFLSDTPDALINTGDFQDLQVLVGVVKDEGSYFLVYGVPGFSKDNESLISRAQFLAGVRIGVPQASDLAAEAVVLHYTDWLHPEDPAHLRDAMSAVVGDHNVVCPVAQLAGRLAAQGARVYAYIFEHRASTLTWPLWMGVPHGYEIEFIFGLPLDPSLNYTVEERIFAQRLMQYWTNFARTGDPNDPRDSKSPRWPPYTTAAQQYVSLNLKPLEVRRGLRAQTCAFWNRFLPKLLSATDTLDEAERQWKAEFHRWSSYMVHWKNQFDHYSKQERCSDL
Nature of the data set: Inhibition of AChE from rat cortex by Ellman's method.

The target of data set [10] is T1, Acetylcholinesterase. Nature of the data set: Inhibition of recombinant human AChE.
The target in data set [11] is T4, Amine oxidase [flavin-containing] B (Homo sapiens, UniProt P27338).
T4 sequence (P27338 whole entry): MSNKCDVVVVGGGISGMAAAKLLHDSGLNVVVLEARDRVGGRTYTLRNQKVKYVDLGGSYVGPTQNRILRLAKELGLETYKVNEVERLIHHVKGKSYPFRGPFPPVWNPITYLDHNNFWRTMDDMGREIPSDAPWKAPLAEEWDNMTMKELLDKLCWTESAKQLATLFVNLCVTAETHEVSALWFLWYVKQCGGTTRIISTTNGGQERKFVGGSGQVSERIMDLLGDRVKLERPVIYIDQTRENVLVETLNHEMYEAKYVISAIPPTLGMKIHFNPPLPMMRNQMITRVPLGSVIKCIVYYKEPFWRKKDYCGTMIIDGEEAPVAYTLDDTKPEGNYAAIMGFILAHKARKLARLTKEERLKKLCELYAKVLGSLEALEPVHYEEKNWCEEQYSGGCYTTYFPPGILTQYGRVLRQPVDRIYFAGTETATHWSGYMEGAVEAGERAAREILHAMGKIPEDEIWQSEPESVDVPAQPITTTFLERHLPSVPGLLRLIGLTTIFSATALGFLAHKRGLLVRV
Nature of the data set: Irreversible inhibition of MAOB (unknown origin).

The next data set concerns CHO-K1. As to the kind of experiment: Cytotoxicity against CHOK1 cells assessed as reduction in cell viability by MTT assay. Conditions: Cricetulus griseus. Format: cell-based.
A further data set concerns HepG2. As to the kind of experiment: Cytotoxicity against human HepG2 cells assessed as reduction in cell viability by MTT assay. Format: cell-based.
In data set [12] the target is T5, Amine oxidase [flavin-containing] A (Homo sapiens, UniProt P21397).
T5 sequence (P21397 whole entry): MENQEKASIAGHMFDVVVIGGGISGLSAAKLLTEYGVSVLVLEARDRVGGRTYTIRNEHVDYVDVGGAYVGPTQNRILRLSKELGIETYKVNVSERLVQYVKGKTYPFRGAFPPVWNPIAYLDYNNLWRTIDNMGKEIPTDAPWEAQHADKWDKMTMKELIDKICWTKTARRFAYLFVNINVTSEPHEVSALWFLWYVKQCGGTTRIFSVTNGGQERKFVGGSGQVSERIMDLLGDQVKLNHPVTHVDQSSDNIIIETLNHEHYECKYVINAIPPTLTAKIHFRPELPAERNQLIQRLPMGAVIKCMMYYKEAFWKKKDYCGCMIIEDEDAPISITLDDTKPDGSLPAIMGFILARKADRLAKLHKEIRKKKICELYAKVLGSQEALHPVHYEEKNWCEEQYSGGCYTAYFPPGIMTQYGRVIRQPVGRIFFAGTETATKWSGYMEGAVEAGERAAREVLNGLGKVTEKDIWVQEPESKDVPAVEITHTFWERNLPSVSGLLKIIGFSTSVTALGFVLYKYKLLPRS
Nature of the data set: Irreversible inhibition of MAOA (unknown origin).

Data set [13] concerns the target T2, Beta-secretase 1. As to the kind of experiment: Inhibition of recombinant human BACE-1.
Another data set deals with Cholinesterase (Equus caballus, UniProt P81908). Nature of the data set: Inhibition of equine serum BChE using butyrylthiocholine iodide as substrate preincubated for 10 mins followed by substrate addition by Ellman's method. (Ellman's reagent forms a yellow product with free thiols.)
The target of data set [14] is Glutamate [NMDA] receptor. Nature of the data set: Displacement of [3H]-ifenprodil from NMDA receptor (unknown origin) by scintillation counting method. Format: protein-complex assay, Homo sapiens. A general note: In a radioligand displacement assay an active substance lowers the binding of a labelled ligand.
In data set [15] the target is Glutamate [NMDA] receptor. As to the kind of experiment: Displacement of [3H]-MK-801 from NMDA receptor (unknown origin) by scintillation counting method. The class given is protein-complex assay, Homo sapiens.
In data set [16] the target is T6, Acetylcholinesterase (Electrophorus electricus, UniProt O42275). Nature of the data set: Inhibition of electric eel AChE using acetylthiocholine as substrate measured for 3.2 mins by Ellman's method.
T6 sequence (O42275 whole entry): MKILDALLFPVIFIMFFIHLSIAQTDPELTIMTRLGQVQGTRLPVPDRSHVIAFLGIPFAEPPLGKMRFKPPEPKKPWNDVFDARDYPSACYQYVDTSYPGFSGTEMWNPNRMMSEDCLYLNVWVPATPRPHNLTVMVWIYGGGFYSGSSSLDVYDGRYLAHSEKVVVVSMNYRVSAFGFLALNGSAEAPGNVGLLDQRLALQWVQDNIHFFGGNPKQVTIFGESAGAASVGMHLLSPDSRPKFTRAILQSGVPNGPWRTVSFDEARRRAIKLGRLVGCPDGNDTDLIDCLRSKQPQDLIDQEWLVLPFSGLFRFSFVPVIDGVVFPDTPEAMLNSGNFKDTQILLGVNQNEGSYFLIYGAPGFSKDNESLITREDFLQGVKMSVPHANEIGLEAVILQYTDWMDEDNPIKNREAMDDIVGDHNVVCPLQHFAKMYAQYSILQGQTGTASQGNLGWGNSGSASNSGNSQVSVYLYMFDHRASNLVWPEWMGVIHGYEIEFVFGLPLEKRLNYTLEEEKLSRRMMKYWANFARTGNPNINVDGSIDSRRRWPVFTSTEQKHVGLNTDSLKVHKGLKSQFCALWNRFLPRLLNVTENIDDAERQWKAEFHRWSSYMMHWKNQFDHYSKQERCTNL
Data set [17] concerns the target Glutamate [NMDA] receptor. Nature of the data set: Inhibition of NMDA receptor (unknown origin). The class given is protein-complex assay, Homo sapiens.
Data set [18] concerns the target Amyloid-beta precursor protein (Homo sapiens) (UniProt P05067). Nature of the data set: Inhibition of beta amyloid (unknown origin) self-induced aggregation relative to control. Conditions: concentration not given here.
Data set [19] deals with T6, Acetylcholinesterase. As to the kind of experiment: Inhibition of electric eel AChE using acetylthiocholine chloride as substrate preincubated for 15 mins followed by substrate addition.
Data set [20] concerns the target T4, Amine oxidase [flavin-containing] B. Nature of the data set: Mixed type inhibition of MAOB (unknown origin).
For data set [21], the target named is T5, Amine oxidase [flavin-containing] A. As to the kind of experiment: Mixed type inhibition of MAOA (unknown origin).
For data set [22], the target named is T2, Beta-secretase 1. Nature of the data set: Irreversible inhibition of BACE-1 (unknown origin).
The target in data set [23] is T1, Acetylcholinesterase. As to the kind of experiment: Irreversible inhibition of AChE (unknown origin).
The target of a further data set is Butyrylcholinesterase (Rattus norvegicus, UniProt Q9JKC1). Nature of the data set: Inhibition of BuChE from rat serum by Ellman's method.
Chain of Butyrylcholinesterase (Q9JKC1 whole entry): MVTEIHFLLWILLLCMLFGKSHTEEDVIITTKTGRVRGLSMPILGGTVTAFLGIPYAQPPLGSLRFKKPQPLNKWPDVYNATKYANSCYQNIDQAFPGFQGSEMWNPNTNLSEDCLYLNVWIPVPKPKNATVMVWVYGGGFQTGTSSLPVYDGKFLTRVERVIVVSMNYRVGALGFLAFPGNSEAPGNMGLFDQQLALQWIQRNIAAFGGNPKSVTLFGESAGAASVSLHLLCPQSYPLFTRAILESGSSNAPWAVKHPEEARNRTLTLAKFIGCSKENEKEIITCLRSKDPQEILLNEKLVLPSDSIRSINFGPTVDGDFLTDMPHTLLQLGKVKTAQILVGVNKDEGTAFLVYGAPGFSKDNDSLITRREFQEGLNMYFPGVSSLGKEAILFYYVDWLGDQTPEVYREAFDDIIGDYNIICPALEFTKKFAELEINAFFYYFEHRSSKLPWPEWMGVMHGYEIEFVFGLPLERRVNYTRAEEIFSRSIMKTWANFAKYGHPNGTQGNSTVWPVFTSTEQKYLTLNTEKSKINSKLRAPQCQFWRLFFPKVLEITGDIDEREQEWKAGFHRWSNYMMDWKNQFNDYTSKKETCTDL
Data set [24] addresses cGMP-inhibited 3',5'-cyclic phosphodiesterase 3A (Homo sapiens, UniProt Q14432). Nature of the data set: Inhibition of PDE3A (unknown origin) by immobilized metal ion affinity-based fluorescence polarization.
For data set [25], the target named is cGMP-specific 3',5'-cyclic phosphodiesterase (Homo sapiens, UniProt O76074). As to the kind of experiment: Inhibition of PDE5A1 (unknown origin) by immobilized metal ion affinity-based fluorescence polarization. (In fluorescence polarisation assays a small probe gives low polarisation when free and higher when bound to something large.)
The target of data set [26] is High affinity cGMP-specific 3',5'-cyclic phosphodiesterase 9A (Homo sapiens, UniProt O76083). As to the kind of experiment: Inhibition of PDE9A2 (unknown origin) by immobilized metal ion affinity-based fluorescence polarization.
Chain of High affinity cGMP-specific 3',5'-cyclic phosphodiesterase 9A (O76083 whole entry): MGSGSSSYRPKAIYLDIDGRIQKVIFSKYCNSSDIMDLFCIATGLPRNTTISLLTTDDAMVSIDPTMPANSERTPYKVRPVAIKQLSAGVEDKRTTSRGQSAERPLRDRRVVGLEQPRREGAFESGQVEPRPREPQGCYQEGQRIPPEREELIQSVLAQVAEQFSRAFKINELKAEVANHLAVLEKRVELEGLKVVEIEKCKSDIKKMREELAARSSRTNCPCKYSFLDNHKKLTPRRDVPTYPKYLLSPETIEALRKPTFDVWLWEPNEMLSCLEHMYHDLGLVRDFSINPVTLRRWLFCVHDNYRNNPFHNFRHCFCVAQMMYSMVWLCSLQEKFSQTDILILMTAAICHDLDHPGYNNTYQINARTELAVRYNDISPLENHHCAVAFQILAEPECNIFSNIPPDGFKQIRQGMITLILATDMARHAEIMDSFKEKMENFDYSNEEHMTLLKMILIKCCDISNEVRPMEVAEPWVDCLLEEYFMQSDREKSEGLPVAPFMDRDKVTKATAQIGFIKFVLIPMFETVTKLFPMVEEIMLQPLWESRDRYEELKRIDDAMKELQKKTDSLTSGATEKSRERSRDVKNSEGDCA
Data set [27] addresses Cone cGMP-specific 3',5'-cyclic phosphodiesterase subunit alpha' (Homo sapiens, UniProt P51160). As to the kind of experiment: Inhibition of PDE6C (unknown origin) by immobilized metal ion affinity-based fluorescence polarization.
In data set [28] the target is High affinity 3',5'-cyclic-AMP phosphodiesterase 7A (Homo sapiens, UniProt Q13946). Nature of the data set: Inhibition of PDE7A (unknown origin) by immobilized metal ion affinity-based fluorescence polarization.
Chain of High affinity 3',5'-cyclic-AMP phosphodiesterase 7A (Q13946 whole entry): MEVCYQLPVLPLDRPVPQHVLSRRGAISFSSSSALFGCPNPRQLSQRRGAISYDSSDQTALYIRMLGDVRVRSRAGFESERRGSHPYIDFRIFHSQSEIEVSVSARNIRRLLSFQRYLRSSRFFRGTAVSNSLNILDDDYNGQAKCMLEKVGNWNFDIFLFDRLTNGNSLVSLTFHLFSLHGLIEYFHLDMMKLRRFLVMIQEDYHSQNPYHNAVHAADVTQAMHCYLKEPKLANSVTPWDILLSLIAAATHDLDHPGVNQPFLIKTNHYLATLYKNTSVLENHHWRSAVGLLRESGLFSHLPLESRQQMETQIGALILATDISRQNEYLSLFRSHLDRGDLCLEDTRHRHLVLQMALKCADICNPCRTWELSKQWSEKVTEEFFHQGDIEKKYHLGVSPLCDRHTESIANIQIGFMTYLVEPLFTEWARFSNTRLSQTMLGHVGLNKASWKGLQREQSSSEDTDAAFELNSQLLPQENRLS
The target in data set [29] is cGMP-dependent 3',5'-cyclic phosphodiesterase (Homo sapiens, UniProt O00408). As to the kind of experiment: Inhibition of PDE2A1 (unknown origin) by immobilized metal ion affinity-based fluorescence polarization.
Data set [30] is described as follows: Inhibition of PDE4D3 (unknown origin) by immobilized metal ion affinity-based fluorescence polarization. Details: species or system Homo sapiens.

Bounds are passed on as bounds.

T2 sequence (P56817 whole entry): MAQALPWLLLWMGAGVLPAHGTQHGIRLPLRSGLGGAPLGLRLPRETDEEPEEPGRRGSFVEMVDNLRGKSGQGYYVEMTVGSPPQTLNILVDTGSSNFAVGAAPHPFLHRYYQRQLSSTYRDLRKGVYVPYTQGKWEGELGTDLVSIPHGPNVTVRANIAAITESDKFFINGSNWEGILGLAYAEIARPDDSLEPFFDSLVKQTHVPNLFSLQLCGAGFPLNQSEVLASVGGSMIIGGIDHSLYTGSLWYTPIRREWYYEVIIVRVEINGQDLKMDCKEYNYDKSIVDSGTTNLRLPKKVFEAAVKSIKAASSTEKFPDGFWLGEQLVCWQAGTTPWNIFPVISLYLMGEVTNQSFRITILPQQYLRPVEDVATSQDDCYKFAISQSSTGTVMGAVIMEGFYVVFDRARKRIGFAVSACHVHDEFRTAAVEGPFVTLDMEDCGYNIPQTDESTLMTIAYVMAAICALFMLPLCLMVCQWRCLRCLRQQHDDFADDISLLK
T1 sequence (P22303 whole entry): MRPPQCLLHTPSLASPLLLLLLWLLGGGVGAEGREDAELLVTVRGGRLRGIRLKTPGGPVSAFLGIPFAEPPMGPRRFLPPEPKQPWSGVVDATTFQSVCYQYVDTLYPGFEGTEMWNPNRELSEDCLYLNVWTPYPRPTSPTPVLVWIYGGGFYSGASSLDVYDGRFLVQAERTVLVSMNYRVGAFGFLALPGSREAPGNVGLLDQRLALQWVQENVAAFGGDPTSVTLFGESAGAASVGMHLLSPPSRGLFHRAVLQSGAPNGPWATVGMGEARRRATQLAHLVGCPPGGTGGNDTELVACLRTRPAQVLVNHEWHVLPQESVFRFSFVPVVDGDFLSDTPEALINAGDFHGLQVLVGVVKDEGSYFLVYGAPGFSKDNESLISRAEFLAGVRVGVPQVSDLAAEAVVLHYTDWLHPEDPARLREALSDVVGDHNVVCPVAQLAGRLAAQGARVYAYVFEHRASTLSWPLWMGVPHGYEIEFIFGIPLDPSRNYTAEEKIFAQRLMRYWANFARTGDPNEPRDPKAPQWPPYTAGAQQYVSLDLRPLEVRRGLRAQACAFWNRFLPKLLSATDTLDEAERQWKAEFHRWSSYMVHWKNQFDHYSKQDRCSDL
Chain of Amyloid-beta precursor protein (Homo sapiens) (P05067 whole entry): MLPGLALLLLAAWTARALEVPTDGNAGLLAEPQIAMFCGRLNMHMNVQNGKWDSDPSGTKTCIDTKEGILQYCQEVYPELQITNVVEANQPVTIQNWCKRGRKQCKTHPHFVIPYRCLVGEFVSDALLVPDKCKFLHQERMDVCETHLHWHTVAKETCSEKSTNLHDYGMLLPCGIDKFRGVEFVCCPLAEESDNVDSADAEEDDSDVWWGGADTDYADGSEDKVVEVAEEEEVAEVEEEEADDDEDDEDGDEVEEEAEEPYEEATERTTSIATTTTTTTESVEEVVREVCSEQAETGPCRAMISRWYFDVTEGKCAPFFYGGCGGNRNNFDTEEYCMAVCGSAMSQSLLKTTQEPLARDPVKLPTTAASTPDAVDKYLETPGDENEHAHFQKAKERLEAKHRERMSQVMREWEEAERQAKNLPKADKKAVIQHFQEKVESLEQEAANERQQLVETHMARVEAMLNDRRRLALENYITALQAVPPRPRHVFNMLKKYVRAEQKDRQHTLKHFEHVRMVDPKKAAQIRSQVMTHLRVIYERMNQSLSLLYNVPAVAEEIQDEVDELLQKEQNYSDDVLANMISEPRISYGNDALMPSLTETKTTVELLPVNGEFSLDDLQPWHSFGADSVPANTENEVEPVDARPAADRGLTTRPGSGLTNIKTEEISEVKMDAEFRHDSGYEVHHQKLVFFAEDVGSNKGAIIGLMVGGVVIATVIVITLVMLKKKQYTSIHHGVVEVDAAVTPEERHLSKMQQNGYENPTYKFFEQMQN
Chain of Cone cGMP-specific 3',5'-cyclic phosphodiesterase subunit alpha' (P51160 whole entry): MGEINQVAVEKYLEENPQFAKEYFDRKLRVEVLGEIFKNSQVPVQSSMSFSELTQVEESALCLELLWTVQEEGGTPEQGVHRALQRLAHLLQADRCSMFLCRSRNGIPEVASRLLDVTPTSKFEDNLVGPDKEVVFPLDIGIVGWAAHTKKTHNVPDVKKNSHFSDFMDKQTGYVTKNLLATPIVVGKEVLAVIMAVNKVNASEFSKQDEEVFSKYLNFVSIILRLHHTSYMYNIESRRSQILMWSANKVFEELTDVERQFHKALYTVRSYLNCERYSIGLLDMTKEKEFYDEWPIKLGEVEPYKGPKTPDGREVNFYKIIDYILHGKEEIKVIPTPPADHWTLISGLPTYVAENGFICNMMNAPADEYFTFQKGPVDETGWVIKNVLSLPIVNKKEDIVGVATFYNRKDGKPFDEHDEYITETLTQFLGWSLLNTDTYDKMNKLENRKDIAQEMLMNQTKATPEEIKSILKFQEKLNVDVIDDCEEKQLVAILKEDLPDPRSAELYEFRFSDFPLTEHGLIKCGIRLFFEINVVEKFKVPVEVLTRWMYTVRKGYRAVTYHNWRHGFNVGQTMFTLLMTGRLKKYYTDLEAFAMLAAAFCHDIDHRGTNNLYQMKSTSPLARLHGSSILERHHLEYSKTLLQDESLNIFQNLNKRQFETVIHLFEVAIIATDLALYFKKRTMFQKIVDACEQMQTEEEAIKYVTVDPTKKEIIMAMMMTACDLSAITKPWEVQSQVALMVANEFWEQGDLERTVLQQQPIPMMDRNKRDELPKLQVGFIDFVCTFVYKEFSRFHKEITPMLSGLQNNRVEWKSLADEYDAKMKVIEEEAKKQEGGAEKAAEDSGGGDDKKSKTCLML

`OC(CNCc1cccc(OCc2ccccc2)c1)Cn1cc(Br)c2cc(Br)ccc21` (stereo not given): the IC50 against Acetylcholinesterase [1] turned out to be 9.1 µM; against Beta-secretase 1 [2], 0.97 µM.

In data set [3], `C#CCN(C)Cc1cc2cc(OCCCC3CCN(Cc4ccccc4)CC3)ccc2n1C` returned an inhibition of 47.8%. For the same compound, on Acetylcholinesterase [1], the half-inhibitory concentration (IC50) is 0.35 µM.

For `COc1ccc(CNC(=O)C2CCN(C(=O)c3ccccc3)CC2)cc1OC`, the IC50 was 0.0183 µM at Beta-secretase 1 [4] and 0.00411 µM at Acetylcholinesterase [5].

Regarding `CC12CC3CC(C)(C1)CC(N)(C3)C2` [MEMANTINE], the bioavailability in data set [6] amounted to 100%. In addition, the half-life in [7] lay within 60 to 100 h. Moreover, the dose excreted in data set [8] is 48%.

`CN1CC(=O)N2[C@H](c3ccc4c(c3)OCO4)c3[nH]c4ccccc4c3C[C@@H]2C1=O` yielded an IC50 against Acetylcholinesterase [9] of 26.2 µM.

As for `COc1ccc2[nH]c3nc4c(c(N)c3c2c1)CCCC4`, the IC50 on Acetylcholinesterase [10] was 1.5 µM; in data set [11] it was 53.9 µM; in the data set with CHO-K1, 5.5 µM; in the data set on HepG2 it was 1.22 µM; in data set [12] it was 0.49 µM; on Beta-secretase 1 [13], 2.4 µM.

`CCN1CCc2c(c3ccccc3n2CCC(=O)N2c3ccccc3Sc3ccccc32)C1`: the values for the IC50 (against Cholinesterase; in data set [14]; in data set [15]) were 0.52 µM, 13.4 µM and 14.6 µM, respectively.

Consider `Cc1cc(=O)oc2cc(OCCN3CCN(CC(=O)Nc4c5c(nc6ccccc46)CCCC5)CC3)ccc12`, for which it took 92 µM to reach half-maximal inhibition on Acetylcholinesterase [16] (IC50).

For the compound `Cc1ccc2[nH]c3c(c2c1)CN(CCCCCN1CCc2[nH]c4ccc(C)cc4c2C1)CC3`, the results for the 50% inhibitory concentration (IC50) (on Acetylcholinesterase [1]; in data set [17]) were 0.195 µM and 11 µM, respectively. Besides, the inhibition in [18] came to 67%.

Take `COc1cc(/C=C/C(O)=C/C(=O)/C=C/c2ccc(OCc3ccccc3)cc2)ccc1O`: on Beta-secretase 1 [2], the IC50 was 2.5 µM.

On Acetylcholinesterase [19], `COc1ccc(/C=C2\COc3cc(OCCCN4CCCCC4)ccc3C2=O)cc1` gave an IC50 of 3.94 µM.

Regarding `C#CCN(C)Cc1ccc(O)c2ncccc12`, the IC50 in data set [20] was 1.5 µM; in data set [11], 10.2 µM; in [21], 57 µM; in data set [12] it was 6.2 µM; against Beta-secretase 1 [22] it was 1.6 µM; against Acetylcholinesterase [23], 1.8 µM.

As to `O=C1[C@H]2Cc3c([nH]c4ccccc34)[C@@H](c3ccc4c(c3)OCO4)N2C(=O)CN1CCC1CCN(Cc2ccccc2)CC1`, the half-inhibitory concentration (IC50) against Butyrylcholinesterase was 3.88 µM; on Acetylcholinesterase [9], 0.032 µM; in data set [24], more than 100 µM; in [25] it was 1.53 µM; in data set [26], more than 100 µM; in [27], more than 100 µM. The half-inhibitory concentration (IC50) in data set [28], in [29] and in data set [30] was more than 100 µM in each case.

What is called IC50 is the concentration at which inhibition is half-maximal. As a reminder, the inhibition is how much of the control response was suppressed. Low values mean a weak effect, high ones a strong effect. As a reminder, the bioavailability is the share of a dose that reaches the circulation, judged against a reference dose that is usually intravenous. Low values mean poor availability, high ones good availability. For orientation: half-life means the time in which the quantity being followed falls by half.
